In patent US20230023092A1, “TREATMENT OF DEPRESSION AND OTHER VARIOUS DISORDERS WITH PSILOCYBIN” (COMPASS […], priority 2019, published 2023):

System: healthy subjects
Assay: Phase 1 study: adverse events (TEAEs, MedDRA coded)
Type: in vivo, human
Experimental: A Phase 1 randomized, double-blind, placebo-controlled study to evaluate the effect of psilocybin on cognitive and emotional processing as compared to placebo in healthy volunteers was conducted. The study investigated the short-term (Day 7) and long-term (Day 28) effects of moderate (10 mg) and high doses (25 mg) of psilocybin on key domains of cognition, such as episodic memory, attention, working and spatial memory, social cognition and elements of executive function, including cognitive flexibility.
Each subject was assigned 1 treatment bottle containing 5 capsules packaged in a double-blind fashion, depending on the randomized treatment arm, the bottle contained one of the following: • a. Psilocybin 10 mg: 2×5-mg oral psilocybin capsules plus 3×placebo capsules • b. Psilocybin 25 mg: 5×5-mg oral psilocybin capsules • c. Placebo: 5×placebo capsules
Each 5-mg oral psilocybin capsules comprised 5 mg crystalline psilocybin in the form or Polymorph A, 12.5 mg of SMCC 50, 79.5 mg of SMCC 90, 1 mg sodium starch glycolate, 1 mg colloidal silicon dioxide, and 1 mg sodium stearyl fumarate
Adverse events: Throughout the course of the study, all AEs were monitored and recorded. Each AE was classified according to the following criteria: • i. […] Moderate: The AE produces some impairment of functioning, but is not hazardous to the subject's health. • iii. Severe: The AE produces significant impairment of functioning or incapacitation and is a definite hazard to the subject's health.
Visit 3 (V3): Drug Administration (Day 0): The subject was asked to eat a light breakfast at least two hours prior to coming to the clinic for study drug administration. On Day 0 (V3), the subject underwent the SSTS, had vital signs obtained, medications reviewed, AEs recorded and eligibility reviewed prior to being randomized to study drug. The study drug was administered to up to six subjects simultaneously in individual beds separated by a curtain. The subject was invited to put on eyeshades and headphones, lie down and listen to calming music for the rest of the session (six hours). The subject was supported 1:1 with a chaperone and supervised by the study psychiatrist and lead therapist.
During administration of psilocybin, each subject received one-on-one support from a trained assisting therapist and each dosing session was supervised by a study psychiatrist and a lead therapist. The study drug was administered simultaneously to up to six participants as a single 5-capsule oral dose (10 mg psilocybin: 2×5-mg psilocybin capsules plus 3×placebo capsules; 25 mg psilocybin: 5×5-mg psilocybin capsules; placebo: 5×placebo capsules). Twenty-five dosing sessions were completed, with up to six participants dosed simultaneously per session. Each session lasted approximately 6 to 8 hours with subjects encouraged to relax and engage in introspection for the duration. After the acute effects of the study drug had subsided, subjects were discharged.

CN(C)CCc1c[nH]c2cccc(OP(=O)(O)O)c12 [Psilocybin, psilocybin]
Psychiatric disorders, worst severity Mild, N (%) (25 mg oral): 4 (13.3)
Psychiatric disorders, worst severity Moderate, Events (25 mg oral): 45
Psychiatric disorders, worst severity Moderate, N (%) (25 mg oral): 16 (53.3)
Psychiatric disorders, worst severity Severe, Events (25 mg oral): 27
Psychiatric disorders, worst severity Severe, N (%) (25 mg oral): 9 (30.0)
Psychomotor skills impaired, Events (25 mg oral): 0
Psychomotor skills impaired, N (%) (25 mg oral): 0
Respiratory, thoracic and mediastinal disorders, Events (25 mg oral): 3
Respiratory, thoracic and mediastinal disorders, N (%) (25 mg oral): 3 (10.0)
Selected TEAE: Nervous system disorders, Events (25 mg oral): 0
Selected TEAE: Nervous system disorders, N (%) (25 mg oral): 0
Selected TEAE: Psychiatric disorders, Events (25 mg oral): 106
Selected TEAE: Psychiatric disorders, N (%) (25 mg oral): 27 (90.0)
Somatic hallucination, Events (25 mg oral): 6
Somatic hallucination, N (%) (25 mg oral): 5 (16.7)
Somatic hallucination, worst severity Mild, Events (25 mg oral): 2
Somatic hallucination, worst severity Mild, N (%) (25 mg oral): 2 (6.7)
Somatic hallucination, worst severity Moderate, Events (25 mg oral): 2
Somatic hallucination, worst severity Moderate, N (%) (25 mg oral): 2 (6.7)
Somatic hallucination, worst severity Severe, Events (25 mg oral): 2
Somatic hallucination, worst severity Severe, N (%) (25 mg oral): 1 (3.3)
Substance-induced psychotic disorder, Events (25 mg oral): 1
Substance-induced psychotic disorder, N (%) (25 mg oral): 1 (3.3)
Tension headache, Events (25 mg oral): 6
Tension headache, N (%) (25 mg oral): 6 (20.0)
Tension headache, worst severity Mild, Events (25 mg oral): 4
Tension headache, worst severity Mild, N (%) (25 mg oral): 4 (13.3)
Tension headache, worst severity Moderate, Events (25 mg oral): 2
Tension headache, worst severity Moderate, N (%) (25 mg oral): 2 (6.7)
Tension headache, worst severity Severe, Events (25 mg oral): 0
Tension headache, worst severity Severe, N (%) (25 mg oral): 0
Time perception altered, Events (25 mg oral): 6
Time perception altered, N (%) (25 mg oral): 6 (20.0)
Time perception altered, worst severity Mild, Events (25 mg oral): 2
Time perception altered, worst severity Mild, N (%) (25 mg oral): 2 (6.7)
Time perception altered, worst severity Moderate, Events (25 mg oral): 4
Time perception altered, worst severity Moderate, N (%) (25 mg oral): 4 (13.3)
Time perception altered, worst severity Severe, Events (25 mg oral): 0
Time perception altered, worst severity Severe, N (%) (25 mg oral): 0
Adverse events reported by % of subjects (25 mg oral, 12-week study): 96.7%
Reported 'Mood altered' events: Being less judgmental (number) (25 mg psilocybin (n = 30)): 0
Reported 'Mood altered' events: Calm (number) (25 mg psilocybin (n = 30)): 0
Reported 'Mood altered' events: Clarity of thought (number) (25 mg psilocybin (n = 30)): 1
Reported 'Mood altered' events: Contemplative state (number) (25 mg psilocybin (n = 30)): 1
Reported 'Mood altered' events: Feeling more moody/sensitive (number) (25 mg psilocybin (n = 30)): 0
Reported 'Mood altered' events: Feeling of adrenaline release (number) (25 mg psilocybin (n = 30)): 0
Reported 'Mood altered' events: Feeling rested (number) (25 mg psilocybin (n = 30)): 0
Reported 'Mood altered' events: Increased compassion (number) (25 mg psilocybin (n = 30)): 1
Reported 'Mood altered' events: Increased creativity (number) (25 mg psilocybin (n = 30)): 1
Reported 'Mood altered' events: Increased empathy (number) (25 mg psilocybin (n = 30)): 2
Reported 'Mood altered' events: Increased sense of connectedness (number) (25 mg psilocybin (n = 30)): 1
Reported 'Mood altered' events: Increased wit (number) (25 mg psilocybin (n = 30)): 0
Reported 'Mood altered' events: Introspection (number) (25 mg psilocybin (n = 30)): 8
Reported 'Mood altered' events: Laughter (number) (25 mg psilocybin (n = 30)): 1
Reported 'Mood altered' events: More socially upbeat (number) (25 mg psilocybin (n = 30)): 1
Reported 'Mood altered' events: Negative mood (number) (25 mg psilocybin (n = 30)): 0
Reported 'Mood altered' events: Reflections (number) (25 mg psilocybin (n = 30)): 4
Reported 'Mood altered' events: Saw themselves from a new perspective (number) (25 mg psilocybin (n = 30)): 1
Reported 'Mood altered' events: Sense of oneness (number) (25 mg psilocybin (n = 30)): 2
Reported 'Mood altered' events: Sense of openness (number) (25 mg psilocybin (n = 30)): 0
Reported 'Mood altered' events: Unusual appreciation of music (number) (25 mg psilocybin (n = 30)): 0
Adverse events that appeared and resolved on day 0 (day of dosing) (all adverse events, all arms): 67%
'mood altered' AEs positive or neutral in nature (all arms): 96%
Median duration of adverse events (all treatment arms, 12-week trial): one
Incidence of Illusion, Hallucination (visual), Mood altered, Headache, Fatigue and Euphoric mood compared to placebo (both 10 and 25 mg): higher
Adverse events likely to be psychedelic in nature resolved on the day of onset or within a day of onset (human, in vivo, oral, 12 weeks): 92%
